Values of other authors as cited in US20160066563A1, “COMPOSITIONS AND METHODS FOR COLLECTING, WASHING, CRYOPRESERVING, RECOVERING AND RETURN OF LIPOASPIRATES TO PHYSICIAN FOR AUTOLOGOUS ADIPOSE TRANSFER PROCEDURES” (priority 2012, published 2016).

System: cells
Details: at room temperature or body temperature

Structure (SMILES): C[S+](C)[O-] [DMSO, dimethylsulfoxide]
- toxicity to cells: toxic to cells

Structure (SMILES): OCC(O)CO [glycerol]
- toxicity to cells: not toxic
